According to patent EP0956036B1, “ANTI-FIBROTIC AGENT ASSAY” (ETHICON, INC., priority 1996, dated 1998):
Read-outs that look alike come from different tables or passages of the source.

Experiments:
[1] = system: TGF-β1 activation; test: Macrophage activation assay (LPS-treated IC-21 macrophages plus fetal fibroblast conditioned media, TGF-β1 ELISA); assay type: cell-based, Mouse; details: for inhibition at 50 µM / inhibition at 100 µM: read-out: Inhibition of TGF-β1 Activation, % control (STD)
Procedure: Cultured macrophages were lifted from the dish with 3 ml of PBS. The PBS was balanced with 15 ml of RPMI-1640 containing 10% FBS. The cells were counted and then seeded in 100 mm plates at 1x10^6 cells/dish. When the cultured macrophages reached approximately 70% confluency (2-3 days) they were washed with PBS and RPMI-1640 medium containing 5% FBS and 10 ng/ml LPS was applied (Figure 1). After 24 h of activation with LPS the cells were washed gently with PBS. At this point conditioned medium from confluent fetal dermal fibroblasts was collected and 5 ml was distributed into each dish containing macrophages. The cells were incubated for an additional 24 h, the media were collected, spun down at 600 x g for 10 min and stored at 4° C before TGF-β1 evaluation by ELISA. Each condition was done in duplicate. The cells, washed with PBS, were harvested for total RNA extraction.
Fetal dermal fibroblasts were seeded in 100 mm dishes at 1x10^6 cell/dish. The cells were grown to confluency (2-3 days). The cultures were washed with PBS and fresh medium, either DMEM supplemented with 10% FBS or AIM-V medium (a serum free medium) for serum-free conditions, was applied for 24 h (Figure 1). The medium was collected and combined in order to obtain a homogenous pool of latent TGF-β1. The collection of the medium was done just prior to application in the macrophage assay.
Each measurement was performed in duplicates.

[2] = system: TGase II; test: mRNA for TGase II in macrophages, RT-PCR with densitometry; assay type: cell-based; details: Mus musculus, Macrophage; macrophages treated with 1 µM hydrocortisone; densitometric analysis of RT-PCR products
Procedure: (§1) The cells were washed with PBS, followed by addition of the extraction buffer provided with the kit (RNeasy RNA extraction kit). The lysed cells were scraped from the dish and collected in microtubes. Samples were either frozen at -70 °C before analysis or directly assessed following manufacturer protocol. Absorbance at 260 nm and 280 nm was measured and the integrity of RNA was evaluated by denaturing formaldehyde agarose gels stained with ethidium bromide.
(§2) The procedure used to transcribe the total RNA was described in detail previously (28). […]
(§3) A portion of the first strand cDNA reaction was used in PCR, which was carried out in 25 µl containing 16 mM Tris-HCl, pH 8.3, 50 mM KCl, 1.5 mM MgCl2, 0.01 % gelatin, 200 µM of each dNTPs, 1 µM each sense and antisense oligonucleotides and 2.5 units of AmpliTaq DNA polymerase. […] Sizes were determined using Q X 174 DNA/Hae III markers. […] Densitometry was used for quantitative analysis of the ethidium bromide stained gels.
In an attempt to identify the mechanism of this inhibition, the level of mRNA was evaluated for TGase II in macrophages treated with 1 µM hydrocortisone.

[3] = system: TGF-β1; test: mRNA for TGF-β1 in macrophages, Northern blot; assay type: cell-based, Mouse; details: combined treatment of LPS with M6P or DCA
Procedure: as §1
Northern blot analysis was carried out as described previously (27). Briefly, total RNA samples (5 µg) were diluted in formaldehyde-MOPS buffer and subjected to electrophoresis in a denaturing 1.2 % Sea Kem GTG agarose gel along with the RNA size markers. RNA was transferred to a nitrocellulose membrane by capillary transfer. The blots were prehybridized for 3 h at 42° C in a solution containing 10% dextran sulfate, 2 x Denhardt's solution, 50% formamide, 5 x SSPE (0.75 M Sodium chloride, 0.05 M sodium phosphate, 0.005 M ethylenediaminetetraacetic acid)/ 0.1% SDS, and 250 µg/ml of sheared salmon testis DNA. Hybridization solution was essentially the same except that ^32P dCTP-labeled DNA probe and 150 µg/ml of salmon testis DNA were included. The hybridization was carried out for 16 h at 42° C. […]

[4] = system: M6P/IGF-II receptor; test: Expression of M6P/IGF-II receptor mRNA in neonatal fibroblasts, semiquantitative RT-PCR; assay type: cell-based, human
Procedure: (§4) Human neonatal fibroblasts were seeded in 100 mm dishes at 1 x 10^6 cells/dish. […] In addition, cells were treated with two concentrations of Mannose 1-Phosphate (M1P) (100 and 200 µM) for 24 and 48 h. […] Each treatment was run in duplicates and repetitive analyses were performed.
as §1
The procedure used to transcribe the total RNA was described in detail previously (28). Briefly, the reaction was carried out in a total volume of 25 µl containing 1x reverse transcriptase buffer (50 mM Tris-HCl, pH 8.3, 75 mM KCl, 3 mM MgCl2), 10 mM DTT (Dithiothreitol), 2.5 mM each of dNTPs (Deoxynucleotides), 100 µg/ml of acetylated BSA, 4 units of rRNasin (ribonuclease inhibitor), 200 units of SuperScript ™ RNase H^-Reverse Transcriptase, 0.1 µg of oligo (dT)12-18 and 1 µg of total RNA. Incubation was carried out for 1 h at 42 °C and was terminated by the addition of an equal volume of cold water.
A portion of the first strand cDNA reaction was used in PCR, which was carried out in 25 µl containing 16 mM Tris-HCl, pH 8.3, 50 mM KCl, 1.5 mM MgCl2, 0.01 % gelatin, 200 µM of each dNTPs, 1 µM each sense and antisense oligonucleotides and 2.5 units of AmpliTaq DNA polymerase. Amplification was carried out for 35 cycles. Each cycle consisted of denaturation 1 min at 95°C; annealing at 55°C (optimal for the pair of oligonucleotides used) for 2 min; and elongation at 72°C, 3 min. For the final cycle elongation was 7 min. Reaction products were separated by 2% agarose gel electrophoresis and were visualized by ethidium bromide staining. […] Restriction digests were performed in order to confirm PCR product specificity. Densitometry was used for quantitative analysis of the ethidium bromide stained gels.

[5] = system: TGF-β1; test: Expression of TGF-β1 mRNA in neonatal fibroblasts, semiquantitative RT-PCR; assay type: cell-based, human
Procedure: as §4, §1, §2
A portion of the first strand cDNA reaction was used in PCR, which was carried out in 25 µl containing 16 mM Tris-HCl, pH 8.3, 50 mM KCl, 1.5 mM MgCl2, 0.01 % gelatin, 200 µM of each dNTPs, 1 µM each sense and antisense oligonucleotides and 2.5 units of AmpliTaq DNA polymerase. […] Densitometry was used for quantitative analysis of the ethidium bromide stained gels.

[6] = system: TGF-β receptor type I; test: Expression of TGF-β receptor type I mRNA in neonatal fibroblasts, semiquantitative RT-PCR; assay type: cell-based, human; details: M6P treatment, during the time course (24 and 48 h)
Procedure: as §4, §1, §2, §3

[7] = system: M6P/IGF-II receptors; test: Levels of M6P/IGF-II receptors within wounds treated with M6P; assay type: in vivo; details: 3 days post-wounding

Work on C[C@]12CCC(=O)C=C1CC[C@@H]1[C@@H]2[C@@H](O)C[C@@]2(C)[C@H]1CC[C@]2(O)C(=O)CO [Hydrocortisone, hydrocortisone] yielded an inhibition at 1 µM ([1]; Mus musculus, read-out: Inhibition of TGF-β1, % Control (STD)) of 64% and a TGase II mRNA level, % of control at 1 µM [2] of 37.5%.
O=P(O)(O)OC[C@H]1OC(O)[C@@H](O)[C@@H](O)[C@@H]1O (stereo partly drawn) [M6P, D-mannose 6-phosphate] was tested, and the “Inhibition of TGF-β1 Activation, % control (STD)” value (“Inhibition … % control (STD)” below) ([1]; 50 µM) was 69.6 (1.7) %, the “Inhibition … % control (STD)” value ([1]; 100 µM) was 32.9 (11.5) % and the “Total TGF-β1 (STD)” value ([1]; LPS + CM serum-free, 100 µM) was 1649.8 (71.7) pg/ml. The “Total TGF-β1 (STD)” value ([1]; LPS+CM with serum, 100 µM) was 2472.6 (374.5) pg/ml, the inhibition at 50 µM ([1]; Mus musculus, 50 µM) was 69.6% and the inhibition at 100 µM ([1]; Mus musculus, 100 µM) was 32.9%. The “levels of mRNA for TGF-β1” value [3] was “remained the same”, the “M6P/IGF II Receptor 24h” value ([4]; M6P 1 µM) was 98.4 (20.6) and the “M6P/IGF II Receptor 48h” value ([4]; M6P 1 µM) was 112.8 (21.4). The “M6P/IGF II Receptor 24h” value ([4]; M6P 10 µM) was 86.1 (3.2), the “M6P/IGF II Receptor 48h” value ([4]; M6P 10 µM) was 108 (7.1) and the “M6P/IGF II Receptor 24h” value ([4]; M6P 50 µM) was 74 (36.6). For the same molecule, the “M6P/IGF II Receptor 48h” value ([4]; M6P 50 µM) was 59.3 (1.4), the “M6P/IGF II Receptor 24h” value ([4]; M6P 100 µM) was 85.4 (25) and the “M6P/IGF II Receptor 48h” value ([4]; M6P 100 µM) was 42.2 (3.2). For the same molecule, the “M6P/IGF II Receptor 24h” value ([4]; M6P 200 µM) was 57.5 (5.2), the “M6P/IGF II Receptor 48h” value ([4]; M6P 200 µM) was 39.6 (1.3) and the “TGF-β1 48 h” value ([5]; M6P 100 µM, 48h) was 57.5 (15.9). For the same molecule, the “level of TGF-β receptor type I mRNA” value [6] was “unchanged” and the “levels of the M6P/IGF-II receptors within the wounds” value [7] was “downregulated”.
In the case of CN(C)c1cccc2c(S(=O)(=O)NCCCCCN)cccc12 [DCA, monodansylcadaverine], the “Inhibition … % control (STD)” value ([1]; 100 µM, listed as Damylcadaverine) is reported as 18.3 (1.6) %, the “Total TGF-β1 (STD)” value ([1]; LPS+CM with serum, 100 µM) is reported as 2302 (219.3) pg/ml and the inhibition at 100 µM ([1]; Mus musculus, 100 µM) is reported as 18.3%. The “levels of mRNA for TGF-β1” value [3] was “remained the same”.
With Cl.Cl.NCCCCN [Putrescine, putrescine-dihydrochloride] the “Inhibition … % control (STD)” value ([1]; 50 µM) was 33.4 (28.8) %, the “Inhibition … % control (STD)” value ([1]; 100 µM) was 80.6 (15.5) % and the inhibition at 50 µM ([1]; Mus musculus, 50 µM) was 33.4%. For the same molecule, the inhibition at 100 µM ([1]; Mus musculus, 100 µM) was 80.6 ± 15.5%.
With O=P(O)(O)O[C@H]1O[C@H](CO)[C@@H](O)[C@H](O)[C@@H]1O [M1P, alpha-D(+) mannose 1-phosphate] the inhibition at 100 µM ([1]; Mus musculus) was 85.9%, the “M6P/IGF-II receptor mRNA levels” value ([4]; 100 and 200 µM, 24 and 48 h) was “no effects” and the “TGF-β1 mRNA levels” value ([5]; 100 and 200 µM, 24 and 48 h) was “no effects”.
